From patent publication US12226405B2, “Compounds and compositions for inhibiting the activity of HIF2-alpha and their methods of use” (Novartis AG, priority 2020, dated 2025) come the findings set out here.

In assay [1] the test system is HIF2α-dependent transcription in 786-O-HRE-Luc cells. Kind of assay: In vitro cellular hypoxia response element (HRE) reporter gene assay (RGA) for HIF2α. It counts as cell-based, human. To be noted: Homo sapiens, 24 hours incubation. In short, it runs like this:
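Renal carcinoma cells carrying a 4×HRE-driven PEST-destabilised firefly luciferase were treated a day after seeding with eleven 2-fold compound dilutions (0.1% DMSO) for 24 h at 37° C. BrightGlo luminescence, background-subtracted and expressed as % of DMSO control, was fitted four-parametrically for IC50.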
In general terms: In a reporter assay the amount or activity of a reporter protein is the signal.

The target of assay [2] is HIF2α PAS-B domain (236-350, biotinylated on the N-terminus) (Homo sapiens (Human), UniProt Q99814). The assay is described as follows: In vitro SPA with the PAS-B domain of HIF2α (competition binding with radio-ligand). To be noted: versus corresponding enantiomer.
HIF2α PAS-B domain (236-350, biotinylated on the N-terminus), sequence (Q99814 236-350): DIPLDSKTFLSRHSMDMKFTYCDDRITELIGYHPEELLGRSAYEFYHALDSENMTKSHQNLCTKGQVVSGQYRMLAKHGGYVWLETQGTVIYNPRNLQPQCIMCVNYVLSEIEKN
Method: The assay buffer contained 50 mM Tris-HCl pH7 (Sigma), 20 mM NaCl (Fluka), 0.02% BSA (Sigma), 0.005% Triton X-100 (Pierce) and 1 mM DTT (Fluka). After a 30 min incubation period, 5 μL Streptavidin PVT SPA Beads (Perkin Elmer) at 1.2 mg/mL, diluted in the buffer, were added.

Compound `FC(F)OC1=CC(C(F)(F)F)=CN2C[C@@]3(CCOc4cc(C(F)(F)F)ccc43)N=C12` [Example 44, (S)-8′-(difluoromethoxy)-6′,7-bis(trifluoromethyl)-3′H-spiro[chroman-4,2′-imidazo[1,2-a]pyridine]] had an IC50 in assay [1] of 112 nM. In assay [2], the “IC50 in the Hif2α SPA assay, fold lower than for the corresponding (R)-enantiomer” value is listed as “greater than 700 fold”.

Regarding `FC(F)OC1=CC(C(F)(F)F)=CN2C[C@@]3(CCC(F)(F)c4c3ccnc4Cl)N=C12` [Example 31, (S)-1′-chloro-8-(difluoromethoxy)-8′,8′-difluoro-6-(trifluoromethyl)-7′,8′-dihydro-3H,6′H-spiro[imidazo[1,2-a]pyridine-2,5′-isoquinoline]], the IC50 in assay [1] was determined as 246 nM.

For orientation: IC50 means the concentration that inhibits the measured activity by half. A lower IC50 goes with higher potency.
